Our source for the IC50 values is US11964953B2, “Substituted aminothiazoles as DGKzeta inhibitors for immune activation” (Bayer Aktiengesellschaft, priority 2020, dated 2024).

Structures are written as SMILES.

Chain of human DGKζ (Q13574 other isoform, or with tags, fused parts or gaps): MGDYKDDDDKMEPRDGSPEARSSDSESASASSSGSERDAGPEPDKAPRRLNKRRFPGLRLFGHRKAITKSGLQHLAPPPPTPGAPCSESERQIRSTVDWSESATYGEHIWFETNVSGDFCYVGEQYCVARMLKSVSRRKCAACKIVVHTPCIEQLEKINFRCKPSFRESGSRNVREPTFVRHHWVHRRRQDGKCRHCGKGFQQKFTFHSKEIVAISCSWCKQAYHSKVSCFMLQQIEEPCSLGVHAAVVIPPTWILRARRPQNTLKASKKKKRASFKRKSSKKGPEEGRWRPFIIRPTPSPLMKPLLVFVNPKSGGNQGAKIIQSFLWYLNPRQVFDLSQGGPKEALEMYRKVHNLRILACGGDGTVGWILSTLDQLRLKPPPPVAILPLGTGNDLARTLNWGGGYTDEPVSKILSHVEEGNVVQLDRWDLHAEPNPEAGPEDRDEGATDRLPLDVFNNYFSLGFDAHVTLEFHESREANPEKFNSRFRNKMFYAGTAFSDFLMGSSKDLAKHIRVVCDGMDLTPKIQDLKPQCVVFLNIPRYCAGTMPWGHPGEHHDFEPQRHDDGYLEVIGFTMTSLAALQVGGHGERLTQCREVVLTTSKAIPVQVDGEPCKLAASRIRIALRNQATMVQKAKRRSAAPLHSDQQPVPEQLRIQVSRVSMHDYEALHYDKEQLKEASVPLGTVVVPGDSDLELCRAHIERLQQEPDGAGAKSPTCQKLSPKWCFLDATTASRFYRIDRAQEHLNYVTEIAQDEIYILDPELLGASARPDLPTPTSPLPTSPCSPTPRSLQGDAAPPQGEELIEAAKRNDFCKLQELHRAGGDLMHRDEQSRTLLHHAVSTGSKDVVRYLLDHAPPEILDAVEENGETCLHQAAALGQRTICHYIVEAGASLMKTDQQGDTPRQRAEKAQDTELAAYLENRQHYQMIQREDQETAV

The experiment deals with human DGKζ (Homo sapiens (Human), UniProt Q13574). The experiment can be described thus: Human DGKζ kinase activity inhibition assay (ADP-Glo). Type of experiment: biochemical. Particulars: in vitro human DGKζ kinase activity inhibition assay; read-out: IC50. The procedure:
Human DGKζ Kinase Activity Inhibition Assay. Human diacylglycerol kinase zeta (DGKζ) inhibitory activity of compounds of the present invention was quantified employing the human DGKζ kinase activity assay as described in the following paragraphs. In essence, the enzyme activity was measured by quantification of the adenosine-di-phosphate (ADP) generated as a co-product of the enzyme reaction via the “ADP-Glo™ Kinase Assay” kit from the company Promega. This detection system works as follows: In a first step the adenosine-tri-phosphate (ATP) not consumed in the kinase reaction is quantitatively converted to cyclic adenosine-mono-phosphate (cAMP) employing an adenylate cyclase (“ADP-Glo-reagent”), then the adenylate cyclase is stopped and the ADP generated in the kinase reaction is converted to ATP, which subsequently generates in a luciferase-based reaction a glow-luminescence signal (“Kinase Detection Reagent”). C-terminally FLAG-tagged, recombinant full-length human DGKζ (in house expressed in baculovirus infected insect cells, purified using anti-Flag pulldown and size exclusion chromatography) was used as enzyme. As an alternative, commercially available enzyme by Carnabio can be used. […] Subsequently, 22.55 volumes of a 510 mM solution of octyl-β-D-glucopyranoside (Sigma-Aldrich, Cat. #O8001-10G) in 50 mM MOPS buffer (pH 7.4) were added, and the mixture was sonicated in an ultrasonic bath for 20 s. […] Viewlux™ from Perkin-Elmer). The amount of emitted light was taken as a measure for the amount of ADP generated and thereby for the activity of the DGKζ.
For orientation: ADP-Glo turns the ADP formed in a reaction into a luminescent signal.
As for `Cc1ccccc1N(c1nc(N)c(C(=O)c2ccccc2)s1)C(C)C(N)=O` (single isomer, unassigned) [Example 77.2, 2-(N-(4-amino-5-benzoyl-thiazol-2-yl)-2-methyl-anilino)propanamide], the IC50 was 10200 nM. Consider `CC1CC(C)CN(c2ccc(C(=O)c3sc(N(c4ccc(F)cc4)C(C)C(N)=O)nc3N)cn2)C1` (racemic) [Example 281, rac-2-(N-[4-amino-5-[6-(3,5-dimethyl-1-piperidyl)pyridine-3-carbonyl]thiazol-2-yl]-4-fluoro-anilino)propanamide], for which the IC50 was determined as 98 nM. As for `CC(C(N)=O)N(c1ccc(F)cc1)c1nc(N)c(C(=O)c2ccc(OCC(=O)NCc3ccc(F)cc3)cc2)s1` (racemic) [Example 97, rac-2-(N-[4-amino-5-[4-[2-[(4-fluorophenyl)methylamino]-2-oxo-ethoxy]benzoyl]thiazol-2-yl]-4-fluoro-anilino)propanamide], the figure is 24.7 nM; as for `CC(C(N)=O)N(c1ccc(F)cc1)c1nc(N)c(C(=O)c2ccc(OCC(=O)NC3CCCC3)cc2)s1` (racemic) [Example 132, rac-2-(N-[4-amino-5-[4-[2-(cyclopentylamino)-2-oxo-ethoxy]benzoyl]thiazol-2-yl]-4-fluoro-anilino)propanamide], 93.3 nM.

On to `CC(C(N)=O)N(c1cccc(F)c1)c1nc(N)c(C(=O)c2ccccc2)s1` (racemic) [Example 74, rac-2-(N-(4-amino-5-benzoyl-thiazol-2-yl)-3-fluoro-anilino)propanamide], for which the IC50 came out at 190 nM. For the compound `COc1ccc(C(=O)c2sc(N(c3ccc(Cl)c(F)c3)C(C)C(N)=O)nc2N)cn1` (racemic) [Example 172, rac-2-(N-[4-amino-5-(6-methoxypyridine-3-carbonyl)thiazol-2-yl]-4-chloro-3-fluoro-anilino)propanamide], the IC50 is 46 nM. Then `CC(C(N)=O)N(c1ccc(Cl)cc1)c1nc(N)c(C(=O)c2ccccc2)s1` (racemic) [Example 34, rac-2-(N-(4-amino-5-benzoyl-thiazol-2-yl)-4-chloro-anilino)propanamide], with 34.4 nM; and `CC(C(N)=O)N(c1ccc(F)cc1)c1nc(N)c(C(=O)c2ccc(NC(=O)OCc3ccccc3)cc2)s1` (single isomer, unassigned) [Example 169.2, Benzyl N-[4-[4-amino-2-(N-(2-amino-1-methyl-2-oxo-ethyl)-4-fluoro-anilino)thiazole-5-carbonyl]phenyl]carbamate], with 859 nM; and `CC(C(N)=O)N(c1ccc(F)cc1)c1nc(N)c(C(=O)c2ccc(OC(F)F)nc2)s1` (racemic) [Example 162, rac-2-(N-[4-amino-5-[6-(difluoromethoxy)pyridine-3-carbonyl]thiazol-2-yl]-4-fluoro-anilino)propanamide], with 22 nM. As to `CC(C(N)=O)N(c1ccc(Cl)cc1)c1nc(N)c(C(=O)c2ccc(Cl)cc2)s1` (single isomer, unassigned) [Example 41.1, 2-(N-[4-amino-5-(4-chlorobenzoyl)thiazol-2-yl]-4-chloro-anilino)propanamide], the 50% inhibitory concentration (IC50) came to 2930 nM. As for `CC(C(N)=O)N(c1ccc(F)cc1)c1nc(N)c(C(=O)c2ccc(F)cc2)s1` (racemic) [Example 64, rac-2-(N-[4-amino-5-(4-fluorobenzoyl)thiazol-2-yl]-4-fluoro-anilino)propanamide], the figure is 55.8 nM.

For the compound `CC(C(N)=O)N(c1nc(N)c(C(=O)c2ccccc2)s1)c1ccc(OC(F)F)cc1Cl` (racemic) [Example 242, rac-2-[N-(4-amino-5-benzoyl-thiazol-2-yl)-2-chloro-4-(difluoromethoxy)anilino]propanamide], the IC50 was found to be 2030 nM. As to `Cc1ccccc1N(c1nc(N)c(C(=O)c2ccccc2)s1)C(C)C(N)=O` (single isomer, unassigned) [Example 77.1, 2-(N-(4-amino-5-benzoyl-thiazol-2-yl)-2-methyl-anilino)propanamide], the IC50 was found to be 234 nM. As for `CC(C(N)=O)N(c1ccc(F)cc1)c1nc(N)c(C(=O)c2ccc(OCC(=O)N(C)C3CCN(C)CC3)cc2)s1` (racemic) [Example 101, rac-2-(N-[4-amino-5-[4-[2-[methyl-(1-methyl-4-piperidyl)amino]-2-oxo-ethoxy]benzoyl]thiazol-2-yl]-4-fluoro-anilino)propanamide], the figure is 329 nM; as for `Cc1nc(N(c2ccc(F)c(F)c2)C(C)C(N)=O)sc1C(=O)c1ccc(OC(F)F)cc1` (single isomer, unassigned) [Example 55.1, 2-(N-[5-[4-(difluoromethoxy)benzoyl]-4-methyl-thiazol-2-yl]-3,4-difluoro-anilino)propanamide], 6 nM; as for `CC(C(N)=O)N(c1ccc(F)cc1)c1nc(N)c(C(=O)c2ccc(C(=O)NC3CC3)cc2)s1` (racemic) [Example 266, rac-4-[4-amino-2-(N-(2-amino-1-methyl-2-oxo-ethyl)-4-fluoro-anilino)thiazole-5-carbonyl]-N-cyclopropyl-benzamide], 287 nM. Turning to `CC(C(N)=O)N(c1ccc(F)cc1)c1nc(N)c(C(=O)c2ccc(N3CCC(C)(C#N)CC3)nc2)s1` (single isomer, unassigned; enantiomer 2) [Example 285.2, 2-(N-[4-amino-5-[6-(4-cyano-4-methyl-1-piperidyl)pyridine-3-carbonyl]thiazol-2-yl]-4-fluoro-anilino)propanamide (enantiomer 2)], the IC50 turned out to be 432 nM. Regarding `COc1ccc(N(c2nc(N)c(C(=O)c3ccc(OC(F)F)cc3)s2)C(C)C(N)=O)cc1` (single isomer, unassigned) [Example 174.2, 2-(N-[4-amino-5-[4-(difluoromethoxy)benzoyl]thiazol-2-yl]-4-methoxy-anilino)propanamide], the IC50 is 3790 nM. As to `CC(C(N)=O)N(c1ccc(F)cc1)c1nc(N)c(C(=O)c2ccc(N3CCC(F)(F)CC3)nc2)s1` (racemic) [Example 284, rac-2-(N-[4-amino-5-[6-(4,4-difluoro-1-piperidyl)pyridine-3-carbonyl]thiazol-2-yl]-4-fluoro-anilino)propanamide], the IC50 came to 33 nM. For `Cc1nc(N(c2ccc(F)c(F)c2)C(C)C(N)=O)sc1C(=O)c1ccc(OC(F)F)cc1` (single isomer, unassigned) [Example 55.2, 2-(N-[5-[4-(difluoromethoxy)benzoyl]-4-methyl-thiazol-2-yl]-3,4-difluoro-anilino)propanamide], the IC50 amounted to 835 nM. Then `CC(C(N)=O)N(c1ccc(C#N)c(F)c1)c1nc(N)c(C(=O)c2ccccc2)s1` (racemic) [Example 192, rac-2-(N-(4-amino-5-benzoyl-thiazol-2-yl)-4-cyano-3-fluoro-anilino)propanamide], with 224 nM; and `CC(C(N)=O)N(c1ccc(C(F)F)cc1)c1nc(N)c(C(=O)c2ccc(OC(F)F)cc2)s1` (racemic) [Example 245, rac-2-[N-[4-amino-5-[4-(difluoromethoxy)benzoyl]thiazol-2-yl]-4-(difluoromethyl)anilino]propanamide], with 22 nM.

As for `CC(C(N)=O)N(c1ccc(Cl)c(F)c1)c1nc(N)c(C(=O)c2ccc(OCc3ccccc3)cc2)s1` (racemic) [Example 166, rac-2-(N-[4-amino-5-(4-benzyloxybenzoyl)thiazol-2-yl]-4-chloro-3-fluoro-anilino)propanamide], the IC50 stood at 3 nM. As for `CC(C(N)=O)N(c1nc(N)c(C(=O)c2ccc(OC(F)F)cc2)s1)c1ccc(Cl)cc1F` (single isomer, unassigned) [Example 46.1, 2-(N-[4-amino-5-[4-(difluoromethoxy)benzoyl]thiazol-2-yl]-4-chloro-2-fluoro-anilino)propanamide], the IC50 worked out at 1470 nM. As to `CC(C(N)=O)N(c1cnn(C)c1)c1nc(N)c(C(=O)c2ccccc2)s1` (single isomer, unassigned) [Example 78.2, 2-[(4-amino-5-benzoyl-thiazol-2-yl)-(1-methylpyrazol-4-yl)amino]propanamide], the IC50 came out at 7550 nM.

Consider `CC(C(N)=O)N(c1ccc(F)c(OC(F)F)c1)c1nc(N)c(C(=O)c2ccccc2)s1` (racemic) [Example 237, rac-2-[N-(4-amino-5-benzoyl-thiazol-2-yl)-3-(difluoromethoxy)-4-fluoro-anilino]propanamide], for which the IC50 was 749 nM. Turning to `CC(C(N)=O)N(c1ccc(Cl)c(F)c1)c1nc(N)c(C(=O)c2ccc(OC(F)F)cc2)s1` (single isomer, unassigned) [Example 48.1, 2-(N-[4-amino-5-[4-(difluoromethoxy)benzoyl]thiazol-2-yl]-4-chloro-3-fluoro-anilino)propanamide], the IC50 is 1.76 nM. Consider `COc1ccc(C(=O)c2sc(N(c3ccc4c(c3)OC(F)(F)O4)C(C)C(N)=O)nc2N)cc1` (racemic) [Example 212, rac-2-[[4-amino-5-(4-methoxybenzoyl)thiazol-2-yl]-(2,2-difluoro-1,3-benzodioxol-5-yl)amino]propanamide], for which the IC50 was found to be 41 nM. Take `CC(C(N)=O)N(c1ccc(OC(F)F)nc1)c1nc(N)c(C(=O)c2ccc(Cl)cc2)s1` (racemic) [Example 253, rac-2-[[4-amino-5-(4-chlorobenzoyl)thiazol-2-yl]-[6-(difluoromethoxy)-3-pyridyl]amino]propanamide]: the IC50 came out at 59 nM.

For orientation: IC50 means the midpoint of a concentration-inhibition curve.
